Here are results for 11 molecules from ChEMBL document CHEMBL1201862, “PubChem BioAssay data set” (2004).

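How tested: cells in 96-well plates exposed to compound for 48 hours at five concentrations. GI50 = concentration required for 50% inhibition of growth.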 Calls of active or inactive are those of the source. Cut-off read from the data, not from the text of the source: active = GI50 up to about 1.1 µM and inactive = higher.

Test systems include A498; NCI-H522; Malme-3M; HCC 2998; KM12; MDA-MB-231; DU-145; M14; MCF7; OVCAR-5; HT-29; HOP-62; COLO 205; SN12C; NCI-H226; MDA-N; SF-539; Hs-578T; ACHN; NCI/ADR-RES.
Common to all, as to assay: inhibition of tumour cell growth, NCI panel, 48 h

Regarding `COC1(CC[C@@H](C)COC2OC(CO)C(O)C(O)C2O)OC2C[C@H]3[C@@H]4CC[C@H]5C[C@@H](OC6OC(CO)C(OC7OC(CO)C(O)C(O)C7O)C(O)C6OC6OC(C)C(O)C(O)C6O)[C@H](O)C[C@]5(C)[C@H]4CC[C@]3(C)C2[C@@H]1C` (stereo partly drawn), the GI50 in the test with A498 was 1.81 µM (inactive); with NCI-H522, 2.2 µM (inactive); in the test with Malme-3M, 1.85 µM (inactive); in the test with HCC 2998 it was 1.7 µM (inactive); in the test with KM12 it was 2.12 µM (inactive); in the test with MDA-MB-231, 1.95 µM (inactive). In addition, the GI50 with DU-145 was 2.01 µM (inactive); in the test on M14 it was 1.84 µM (inactive); in the test with MCF7, 2.88 µM (inactive); with OVCAR-5, 2.17 µM (inactive); in the test on HT-29, 2.19 µM (inactive); in the test with HOP-62, 1.89 µM (inactive). In addition, the GI50 is 2.57 µM (inactive) with COLO 205; 1.86 µM (inactive) in the test on SN12C; 2.22 µM (inactive) in the test with NCI-H226; 2.19 µM (inactive) in the test with MDA-N; 1.83 µM (inactive) in the test on SF-539; 2.52 µM (inactive) in the test on Hs-578T. Moreover, in the test on ACHN, the GI50 is 1.77 µM (inactive).

On to `COc1cc2c(cc1-c1coc3cc(OCC=C(C)C)ccc3c1=O)OCO2`, for which the GI50 in the test on A498 is 33.4 µM (inactive); in the test with NCI-H522, 15.5 µM (inactive); in the test on HCC 2998, 15.4 µM (inactive); with KM12, 13.8 µM (inactive); with MDA-MB-231, 18.5 µM (inactive); in the test with DU-145, 34.9 µM (inactive). Also, the GI50 is 26.8 µM (inactive) with M14; 28.6 µM (inactive) with MCF7; 55.6 µM (inactive) in the test with OVCAR-5; 29.8 µM (inactive) in the test with HOP-62; 29.4 µM (inactive) in the test with COLO 205; 27.8 µM (inactive) with SN12C. The GI50 is 6.7 µM (inactive) in the test with MDA-N, 36.2 µM (inactive) in the test with SF-539, 28.8 µM (inactive) in the test with Hs-578T and 29.3 µM (inactive) with ACHN.

In the case of `CC/C(C)=C1\OC(=O)C(C)C(O)C(Cc2cccnc2)NC(=O)C(NC(=O)c2ncccc2O)C(C)OC1=O` (stereo not drawn), the GI50 in the test with A498 is > 100 µM (inactive); with Malme-3M, 39.5 µM (inactive); with HCC 2998, > 100 µM (inactive); with KM12 it was 42 µM (inactive); in the test on MDA-MB-231 it was > 100 µM (inactive); in the test with DU-145 it was > 100 µM (inactive). Also, the GI50 was 70.6 µM (inactive) in the test on M14; > 100 µM (inactive) in the test on MCF7; > 100 µM (inactive) in the test on OVCAR-5; 42.2 µM (inactive) in the test on HT-29; 51.1 µM (inactive) in the test on HOP-62; > 100 µM (inactive) in the test on COLO 205. The GI50 in the test on SN12C is 94 µM (inactive); in the test on MDA-N, > 100 µM (inactive); in the test with SF-539, > 100 µM (inactive); with Hs-578T, 29.7 µM (inactive); in the test with ACHN, 6.7 µM (inactive).

As to `Cn1/c(=N\S(=O)(=O)c2ccccc2)n(S(=O)(=O)c2ccccc2)c2ccccc21`, the GI50 in the test on A498 is 78.7 µM (inactive); in the test on NCI-H522 it was 50.4 µM (inactive); with Malme-3M, 47.6 µM (inactive); with KM12, 26.2 µM (inactive); in the test on MDA-MB-231, > 100 µM (inactive); in the test with DU-145 it was 72.8 µM (inactive). Besides, the GI50 in the test with M14 was 53.7 µM (inactive); in the test on OVCAR-5 it was > 100 µM (inactive); in the test on NCI/ADR-RES it was 38.6 µM (inactive); in the test with HT-29, 35.6 µM (inactive); with HOP-62, 38.8 µM (inactive); in the test on COLO 205, 32.9 µM (inactive). Further, the GI50 in the test with SN12C is 87.3 µM (inactive); with NCI-H226, 50.2 µM (inactive); with MDA-N, 61.5 µM (inactive); in the test on Hs-578T it was 41.8 µM (inactive); with ACHN it was 34.5 µM (inactive).

As to `C=CC[C@@H]1C(=O)[C@@]2(O[Si](C(C)C)(C(C)C)C(C)C)CC[C@@H]1C[C@H]2NC(=O)OCC(Cl)(Cl)Cl`, the GI50 in the test with A498 is > 100 µM (inactive); in the test with NCI-H522, < 0.01 µM (active); in the test with HCC 2998, 43.2 µM (inactive); with KM12 it was > 100 µM (inactive); with MDA-MB-231, > 10 µM (inactive); with DU-145, > 100 µM (inactive). In addition, the GI50 in the test on M14, in the test on OVCAR-5, in the test with NCI/ADR-RES, in the test on HT-29, in the test with HOP-62 and with COLO 205 was > 100 µM (inactive) each time. In addition, the GI50 was 45.3 µM (inactive) in the test with SN12C; > 100 µM (inactive) in the test with NCI-H226; 77.1 µM (inactive) with MDA-N; > 100 µM (inactive) with Hs-578T; 73.8 µM (inactive) in the test on ACHN.

Take `CCOC(=O)NC(=S)c1ccc(O)c2ccccc12`: the GI50 in the test on A498 was > 100 µM (inactive); in the test with NCI-H522 it was 16.9 µM (inactive); in the test with Malme-3M it was 33.1 µM (inactive); in the test on HCC 2998, 91 µM (inactive); in the test on KM12, 39 µM (inactive); with DU-145 it was > 100 µM (inactive). The GI50 is 70.1 µM (inactive) in the test with M14; 72.1 µM (inactive) in the test with MCF7; > 100 µM (inactive) in the test with OVCAR-5; 25.8 µM (inactive) with NCI/ADR-RES; 66.1 µM (inactive) with HT-29; 77.1 µM (inactive) with HOP-62. Besides, the GI50 is > 100 µM (inactive) in the test on COLO 205; 26.4 µM (inactive) in the test on MDA-N; 53.8 µM (inactive) with SF-539; 21.7 µM (inactive) with Hs-578T; 80.5 µM (inactive) with ACHN.

Take `Nc1nc(Cl)c(N)c(NCC2(CO)CC(CCCc3ccccc3)C2)n1` (stereo not drawn): the GI50 is 15.5 µM (inactive) in the test on A498; 0.121 µM (active) with NCI-H522; 1.26 µM (inactive) with Malme-3M; 38.2 µM (inactive) in the test on HCC 2998; 21.5 µM (inactive) in the test on KM12; 41.5 µM (inactive) in the test with MDA-MB-231. The GI50 is 68.7 µM (inactive) in the test with DU-145; 22 µM (inactive) in the test with M14; 8.02 µM (inactive) in the test with MCF7; > 100 µM (inactive) in the test with OVCAR-5; 59.2 µM (inactive) in the test with HOP-62; 16 µM (inactive) with COLO 205. Further, the GI50 is 62.7 µM (inactive) in the test with SN12C; 2.91 µM (inactive) in the test with NCI-H226; 19.3 µM (inactive) in the test with MDA-N; 30 µM (inactive) with SF-539; 36.7 µM (inactive) with Hs-578T; 35.6 µM (inactive) with ACHN.

Regarding `[N-]=[N+]=NC1=C(c2ccccc2)C(=O)c2cccc3cccc1c23`, the GI50 is 1.52 µM (inactive) with A498; 18.8 µM (inactive) in the test on Malme-3M; 11.4 µM (inactive) in the test on HCC 2998; 8.02 µM (inactive) in the test on KM12; 28.9 µM (inactive) in the test with DU-145; 8.3 µM (inactive) in the test on M14. The GI50 is 26.9 µM (inactive) with MCF7; 48.5 µM (inactive) with OVCAR-5; 45.5 µM (inactive) in the test with NCI/ADR-RES; 6.56 µM (inactive) in the test with HT-29; 15.2 µM (inactive) in the test with HOP-62; > 100 µM (inactive) with COLO 205. Moreover, the GI50 in the test with SN12C is 29.9 µM (inactive); in the test on MDA-N, 12.2 µM (inactive); in the test on SF-539 it was 16.1 µM (inactive); in the test with Hs-578T it was 10.1 µM (inactive); in the test on ACHN it was 6.01 µM (inactive).

For `Cn1c(=O)c2c(ncn2CCNC(CO)C(O)c2ccc([N+](=O)[O-])cc2)n(C)c1=O` (stereo not drawn), the GI50 in the test with A498 is > 100 µM (inactive); with NCI-H522, > 100 µM (inactive); in the test with Malme-3M it was > 100 µM (inactive); in the test with HCC 2998 it was > 10 µM (inactive); in the test with KM12, > 100 µM (inactive); with MDA-MB-231, > 100 µM (inactive). Moreover, the GI50 in the test on M14, in the test on MCF7, in the test with NCI/ADR-RES, with HT-29, in the test on HOP-62 and in the test on COLO 205 was > 100 µM (inactive) throughout. In addition, the GI50 is > 100 µM (inactive) in the test with SN12C; > 100 µM (inactive) in the test with NCI-H226; > 100 µM (inactive) with MDA-N; > 100 µM (inactive) with SF-539; > 10 µM (inactive) in the test on Hs-578T; > 100 µM (inactive) with ACHN.

Take `CCc1n[nH]c(=O)n1NC(=O)CCCC(=O)O`: the GI50 in the test with A498, with NCI-H522, in the test with Malme-3M, in the test on HCC 2998, in the test with KM12 and in the test with MDA-MB-231 was > 100 µM (inactive) in each case. Further, the GI50 in the test with M14, in the test with MCF7, in the test with OVCAR-5, with NCI/ADR-RES, in the test with HT-29 and in the test on HOP-62 was > 100 µM (inactive) throughout. Moreover, the GI50 in the test with COLO 205, in the test with SN12C, with NCI-H226, with MDA-N, in the test on SF-539 and with Hs-578T was > 100 µM (inactive) in each case. In addition, the GI50 in the test on ACHN was > 100 µM (inactive).

`CC(=O)[C@]1(O)Cc2c(O)c3c(c(O)c2[C@@H](OC2CC(N)C(O)C(C)O2)C1)C(=O)c1c(OCc2ccccc2)cccc1C3=O` (stereo partly drawn): the GI50 in the test on A498 is 5.61 µM (inactive); with NCI-H522, 1.48 µM (inactive); with Malme-3M, 3.33 µM (inactive); in the test on HCC 2998 it was 1.34 µM (inactive); in the test on KM12 it was 1.41 µM (inactive); in the test with MDA-MB-231 it was 1.92 µM (inactive). For the same molecule, the GI50 with DU-145 is 1.63 µM (inactive); with M14, 1.49 µM (inactive); in the test with OVCAR-5, 2.07 µM (inactive); with HT-29 it was 1.51 µM (inactive); in the test on HOP-62, 1.84 µM (inactive); with COLO 205, 1.16 µM (inactive). The GI50 in the test on SN12C was 1.37 µM (inactive); in the test with NCI-H226, 1.09 µM (active); in the test with MDA-N, 1.58 µM (inactive); with SF-539 it was 1.46 µM (inactive); with Hs-578T, 0.619 µM (active); with ACHN it was 0.946 µM (active).
